Data on one molecule can be found in patent US20240141294A1, “CGMP COMPLIANT PRODUCTION AND EXPANSION OF PLASMACYTOID DENDRITIC CELLS FROM HEMATOPOIETIC STEM AND PROGENITOR CELLS” (AARHUS UNIVERSITET, priority 2021, published 2024).

For this experiment, the system named is HSPC-pDCs. The experiment is described as follows: Phenotypic analysis of pDC surface markers by flow cytometry. The class given is cell-based, human. The conditions noted are these: pDCs isolated from AA-supplemented culture at day 16. Here is the method: Flow cytometry was used to immunophenotype pDCs. Briefly, cells were spun down and resuspended in 100 μL PBS. Cells were stained with Ghost Dye Red 780 Viability Dye (13-0865, Tonbo) for 30 min before being washed with FACS buffer (PBS with 2% FCS and 1 mM EDTA). Cells were subsequently resuspended in 50 μL FACS buffer and stained with the following antibodies: FITC anti-human Lineage Cocktail (CD3 (UCHT1), CD14 (HCD14), CD16 (3G8), CD19 (HIB19), CD20 (2H7) and CD56 (HCD56), 348801, BioLegend), APC anti-human CD11c (3.9, 20-0116-T100, TonboBio), PE anti-human CD123 (6H6, 12-1239-42, eBioscience), PE-Cy7 anti-human CD303 (201a, 25-9818-42, eBioscience). Cells were stained for 30 min before being washed three times in FACS buffer. To validate the expression CD34+ on HSPCs, cells were stained with PE-Cy7 anti-human CD34 (581, 343516, BioLegend) for 30 min, washed three times in FACS buffer before being resuspended in FACS buffer. PI was added to the cells as a viability dye in a concentration of 1:100 (13-6990 Tonbo Bioscience). Fluorescence intensities were measured using the Quanteon flow cytometer equipped with 4 lasers (405 nm, 488 nm, 561 nm, and 637 nm) and 29 photomultipliers (PMT) detectors or the NovoCyte flow cytometer with two lasers (488 nm and 561 nm) and 12 PMT detectors (ACEA Biosciences, Inc.). Data analysis was done using FlowJo (Version 10, Tree Star, Ashland, OR, USA). […]
In general terms: In flow cytometry, cells or beads pass a laser one at a time.

Take `O=C1O[C@H]([C@@H](O)CO)C(O)=C1O` [ascorbic acid]: the “surface expression levels of CD303” value is given as “lower expression levels”.
